pIC50: −log10 of the molar value. Calls of active or inactive are those of the source. The calls are words filed in the database; no cut-off is given here.
Key:
CHO [1] = experiment: Inhibition of gamma secretase in CHO cells stably expressing amyloid precursor protein assessed as reduction in Abeta42 levels at 10 uM by ELISA relative to control; type: cell-based; settings: Cricetulus griseus
[2] = Inhibition of gamma secretase in CHO cells stably expressing amyloid precursor protein assessed as reduction in Abeta42 levels by ELISA; type: cell-based; settings: Cricetulus griseus
CHO [3] = experiment: Inhibition of BACE1 in CHO cells stably expressing amyloid precursor protein assessed as sAPPbeta level at 10 uM after 24 hrs by Western blot analysis relative to control; type: cell-based; settings: Cricetulus griseus
[4] = (§1) Inhibition of BACE1 in CHO cells stably expressing amyloid precursor protein assessed as reduction in sAPPbeta expression after 24 hrs by Western blot analysis; type: cell-based; settings: Cricetulus griseus
CHO [5] = experiment: as §1; type: cell-based; settings: Cricetulus griseus
[6] = (§2) Inhibition of BACE1 in CHO cells stably expressing amyloid precursor protein after 24 hrs by Western blot analysis; type: cell-based, Cricetulus griseus
CHO [7] = experiment: as §2; type: cell-based; settings: Cricetulus griseus
CHO [8] = experiment: Cytotoxicity against CHO cells stably expressing amyloid precursor protein at 2.5 to 10 uM after 24 hrs by MTT assay; type: cell-based, Cricetulus griseus; settings: chinese hamster
Mus musculus [9] = experiment: Neuroprotective activity against scopolamine-induced memory impairment in ICR mouse assessed as increase in hippocampal phosphorylated ERK level at 2.5 to 5 mg/kg, po administered for 7 days by Western blot analysis; type: functional, organism-based
Mus musculus [10] = experiment: Cognitive enhancing effect in ICR mouse model of scopolamine-Induced memory impairment assessed as escape latency time at 2.5 mg/kg, po administered for 7 days and measured after 60 mins at first day of training session by Morris water maze test (reference value: 84.5 +/- 4.6 secs); type: functional
Mus musculus [11] = experiment: Cognitive enhancing effect in ICR mouse model of scopolamine-Induced memory impairment assessed as escape latency time at 2.5 mg/kg, po administered for 7 days and measured after 60 mins at 5th day of training session by Morris water maze test (reference value: 77.5 +/- 6.6 secs); type: functional
Mus musculus [12] = experiment: Cognitive enhancing effect in ICR mouse model of scopolamine-Induced memory impairment assessed as escape latency time at 5 mg/kg, po administered for 7 days and measured after 60 mins at first day of training session by Morris water maze test (reference value: 84.5 +/- 4.6 secs); type: functional
Mus musculus [13] = experiment: Cognitive enhancing effect in ICR mouse model of scopolamine-Induced memory impairment assessed as escape latency time at 5 mg/kg, po administered for 7 days and measured after 60 mins at 5th day of training session by Morris water maze test (reference value: 77.5 +/- 6.6 secs); type: functional
Mus musculus [14] = experiment: Cognitive enhancing effect in po dosed ICR mouse model of scopolamine-Induced memory impairment assessed as increase in time spent in target quadrant administered for 7 days and measured on day 6 by Morris water maze test; type: functional, organism-based
Mus musculus [15] = experiment: Cognitive enhancing effect in ICR mouse model of scopolamine-Induced memory impairment assessed as time spent in target quadrant at 1.25 mg/kg, po administered for 7 days and measured on day 6 by Morris water maze test (reference value: 14.48 +/- 1.6 secs); type: functional
Mus musculus [16] = experiment: Cognitive enhancing effect in ICR mouse model of scopolamine-Induced memory impairment assessed as time spent in target quadrant at 5 mg/kg, po administered for 7 days and measured on day 6 by Morris water maze test (reference value: 14.48 +/- 1.6 secs); type: functional
Mus musculus [17] = experiment: Cognitive enhancing effect in ICR mouse model of scopolamine-Induced memory impairment assessed as time spent in target quadrant at 2.5 mg/kg, po administered for 7 days and measured on day 6 by Morris water maze test (reference value: 14.48 +/- 1.6 secs); type: functional
Mus musculus [18] = experiment: Reversal of scopolamine-induced amnesic effect in ICR mouse assessed as step-through latecy time at 1.25 mg/kg, po administered for 7 days followed by scopolamine challenge 30 mins prior to test by passive avoidance test (reference value: 10.80 +/- 4.1 secs); type: functional
Mus musculus [19] = experiment: Reversal of scopolamine-induced amnesic effect in ICR mouse assessed as step-through latecy time at 2.5 mg/kg, po administered for 7 days followed by scopolamine challenge 30 mins prior to test by passive avoidance test (reference value: 10.80 +/- 4.1 secs); type: functional
Mus musculus [20] = experiment: Reversal of scopolamine-induced amnesic effect in ICR mouse assessed as step-through latecy time at 5 mg/kg, po administered for 7 days followed by scopolamine challenge 30 mins prior to test by passive avoidance test (reference value: 10.80 +/- 4.1 secs); type: functional
Mus musculus [21] = experiment: Cognitive enhancing effect in ICR mouse model of scopolamine-induced short-term memory impairment assessed as increase in spontaneous alteration at 5 mg/kg, po administered for 7 days followed by scopolamine challenge 30 mins prior to test by Y-maze test; type: functional
Mus musculus [22] = experiment: Memory improvement effect in ICR mouse model of scopolamine-induced memory impairment assessed as discrimination index at 2.5 mg/kg, po administered for 7 days followed by scopolamine challenge 30 mins prior to test by object recognition test (reference value: 60.14 +/- 2.1%); type: functional
Mus musculus [23] = experiment: Memory improvement effect in ICR mouse model of scopolamine-induced memory impairment assessed as discrimination index at 5 mg/kg, po administered for 7 days followed by scopolamine challenge 30 mins prior to test by object recognition test (reference value: 60.14 +/- 2.1%); type: functional
Mus musculus [24] = experiment: Neuroprotective activity against scopolamine-induced memory impairment in ICR mouse assessed as increase in cortical phosphorylated CREB level at 1.25 to 2.5 mg/kg, po administered for 7 days by Western blot analysis; type: functional, organism-based
Mus musculus [25] = experiment: Neuroprotective activity against scopolamine-induced memory impairment in ICR mouse assessed as increase in cortical phosphorylated AKT level at 5 mg/kg, po administered for 7 days by Western blot analysis; type: functional, organism-based
Mus musculus [26] = experiment: Neuroprotective activity against scopolamine-induced memory impairment in ICR mouse assessed as increase in hippocampal phosphorylated CREB level at 5 mg/kg, po administered for 7 days by Western blot analysis; type: functional, organism-based
Mus musculus [27] = experiment: Neuroprotective activity against scopolamine-induced memory impairment in ICR mouse assessed as increase in hippocampal phosphorylated AKT level at 2.5 to 5 mg/kg, po administered for 7 days by Western blot analysis; type: functional, organism-based
Mus musculus [28] = experiment: Neuroprotective activity against scopolamine-induced memory impairment in ICR mouse assessed as increase in cortical phosphorylated ERK level at 1.25 to 5 mg/kg, po administered for 7 days by Western blot analysis; type: functional, organism-based
Mus musculus [29] = experiment: Suppression of AChE in ICR mouse model of scopolamine-induced memory impairment assessed as reduction in protein activity in hippocampus at 5 mg/kg,po administered for 7 days by Ellman's method; type: functional, organism-based

## COC(C)(C)[C@H]1O[C@@]23O[C@@H]1C[C@@H](C)[C@@H]2[C@@]1(C)CC[C@@]24C[C@@]25CC[C@H](O[C@@H]2OC[C@@H](O)[C@H](O)[C@H]2O)C(C)(C)[C@@H]5CC=C4[C@]1(C)[C@H]3O
CHO [1]
  inhibition: 48.9%
[2]
  pIC50: 5.00
CHO [3]
  inhibition: 20%
[4]
  pIC50: 5.15
CHO [5]
  inhibition: Dose-dependent effect
[6]
  pIC50: 5.09
CHO [7]
  inhibition: Dose-dependent effect
CHO [8]
  Activity: Non-Toxic

## CC(=O)O[C@@H]1[C@H](O)[C@@H](O)[C@H](O[C@H]2CC[C@]34C[C@]35CC[C@]3(C)[C@H]6[C@H](C)C[C@H]([C@@H](OC(C)=O)C(C)(C)O)O[C@@]6(O)[C@H](O)[C@@]3(C)C5=CC[C@H]4C2(C)C)O[C@@H]1CO
CHO [1]
  inhibition: 34.7%
[2]
  pIC50: 4.84
[4]
  pIC50: 5.08
CHO [5]
  inhibition: Dose-dependent effect
[6]
  pIC50: 5.11
CHO [7]
  inhibition: Dose-dependent effect
CHO [8]
  Activity: Non-Toxic

## C[C@@H]1C[C@H]([C@@H](O)C(C)(C)O)O[C@H]2C(=O)[C@@]3(C)C4=C(CC[C@]3(C)[C@@H]12)C[C@]12CC[C@H](O1)C(C)(C)[C@@H]2CC4
CHO [1]
  inhibition: 80.6%
[2]
  pIC50: 5.21
CHO [3]
  inhibition: 20%
[4]
  pIC50: 5.37
CHO [5]
  inhibition: Dose-dependent effect
[6]
  pIC50: 5.21
CHO [7]
  inhibition: Dose-dependent effect
CHO [8]
  Activity: Non-Toxic

## CC(=O)O[C@H]([C@H]1C[C@@H](C)[C@H]2[C@@](O)(O1)[C@H](O)[C@@]1(C)C3=CC[C@H]4C(C)(C)[C@@H](O[C@@H]5OC[C@@H](O)[C@H](O)[C@H]5O)CC[C@@]45C[C@@]35CC[C@]21C)C(C)(C)O
Mus musculus [9]
  Activity: Active
CHO [1]
  inhibition: 61.7%
[2]
  pIC50: 5.09
CHO [3]
  inhibition: 20%
[4]
  pIC50: 5.21
CHO [5]
  inhibition: Dose-dependent effect
[6]
  pIC50: 5.15
CHO [7]
  inhibition: Dose-dependent effect
Mus musculus [10]
  Time: 80.7 s
Mus musculus [11]
  Time: 49.4 s
Mus musculus [12]
  Time: 76 s
Mus musculus [13]
  Time: 48.1 s
Mus musculus [14]
  Activity: Dose-dependent effect
Mus musculus [15]
  Time: 18.43 s
Mus musculus [16]
  Time: 25.86 s
Mus musculus [17]
  Time: 20.4 s
Mus musculus [18]
  Time: 14.5 s
Mus musculus [19]
  Time: 28.8 s
Mus musculus [20]
  Time: 46.9 s
Mus musculus [21]
  Activity: 11.6%
Mus musculus [22]
  Activity: 64.29%
Mus musculus [23]
  Activity: 68%
Mus musculus [24]
  Activity: Active
Mus musculus [25]
  Activity: Active
Mus musculus [26]
  Activity: Active
Mus musculus [27]
  Activity: Active
Mus musculus [28]
  Activity: Active
Mus musculus [29]
  Activity: Active
CHO [8]
  Activity: Non-Toxic

— ChEMBL document CHEMBL4602677, “Protective Effects of Compounds from Cimicifuga dahurica against Amyloid Beta Production in Vitro and Scopolamine-Induced Memory Impairment in Vivo” (J Nat Prod, 2020)
